Data taken from paper PMC12040169 (PLOS Biology, 2025).

Experiment: in vitro
Settings: human, hela cells, % viability

Going from CC(=O)Nc1ccc(NC2SC(=O)N(c3ccccc3)C2=O)cc1 (stereo not drawn) [CBK085110] to O=C(Nc1ccc(OCc2ccccc2)cc1)c1cnc2n(c1=O)CCS2 [CBK287378], the viability at 28.5 h, 10 µM rises from 88.4% to 91.3%.

First: O=C(Cn1cccc2cc(-c3cccs3)nc1-2)NC1CC1 [CBK281897]
Second: CC(Cc1cccs1)NC(=O)c1cc(-c2ccccn2)n[nH]1 (stereo not drawn) [CBK282446]
The viability at 28.5 h, 10 µM of the first is higher: 108% for the first, 104% for the second.

Going from Cc1csc(C(Cc2ccsc2)NCc2cccnc2)n1 (stereo not drawn) [CBK285020] to O=C(O)CCCC(=O)NCc1cccnc1 [CBK261708], the viability at 28.5 h, 10 µM rises from 96.6% to 106%.

Going from O=C(c1ccco1)N1CCc2cc(-c3cn4c(n3)CCCC4)ccc21 [CBK282893] to O=C(NCc1cccs1)N1CCCN(Cc2ccc(F)cc2)CC1 [CBK306294], the viability at 28.5 h, 10 µM falls from 98.8% to 97.4%.

Compared with CCOC(=O)N1CCN(S(=O)(=O)c2ccc3c(c2)n(C)c(=O)n3C)CC1 [CBK304620], COc1ccc(S(=O)(=O)N2CCN(C(=O)COc3ccc4ccccc4c3)CC2)cc1 [CBK263371] is higher in viability at 28.5 h, 10 µM: 86.8% for the first, 91.5% for the second.

Going from O=S(=O)(O)CCCSc1nc2ccccc2s1 [CBK260900N] to CCOC(=O)CSc1nc(-c2ccc(C)cc2)cs1 [CBK007039], the viability at 28.5 h, 10 µM falls from 100% to 90.4%.

First: COc1ccc(Oc2nccnc2N2CCN(Cc3ccc4c(c3)OCO4)CC2)cc1OC [CBK083048T]
Second: COc1cc(-c2cc(N3CCN(Cc4cccnc4)CC3)n3nccc3n2)cc(OC)c1OC [CBK037063]
The viability at 28.5 h, 10 µM of the first is higher: 106% for the first, 95.9% for the second.

Going from Cc1ccc(C(C)C(=O)N2CCC(O)(Cn3ccnc3C)CC2)cc1 (stereo not drawn) [CBK284660] to Cc1nccn1CCC(=O)Nc1ccccc1Oc1ccc(F)cc1 [CBK281473], the viability at 28.5 h, 10 µM rises from 83.8% to 91.9%.

Compared with COc1cc(Br)cc(C2NC(=O)c3cnc(SC)nc3N2)c1O (stereo not drawn) [CBK291179], COc1cc(Nc2cncc(-c3ccccc3CO)n2)cc(OC)c1OC [CBK037160] is higher in viability at 28.5 h, 10 µM: 91.9% for the first, 95.4% for the second.

Going from O=S(=O)(c1ccc(F)cc1)N1CCN(c2ncnc3scc(-c4ccccc4)c23)CC1 [CBK264864] to CN1CCN(S(=O)(=O)c2ccc(Oc3ccc([N+](=O)[O-])cc3)cc2)CC1 [CBK262248], the viability at 28.5 h, 10 µM rises from 103% to 105%.

Compared with CC(NC(=O)N(CCCN)Cc1ccccc1C(F)(F)F)c1ccccc1 (stereo not drawn) [CBK034668C], CC(C)N(Cc1nc(-c2ccccc2)no1)C(=O)CCc1ccccc1 [CBK269867] is higher in viability at 28.5 h, 10 µM: 99.9% for the first, 109% for the second.

Compared with COCCc1nc(C2CCN(C)CC2)n(Cc2ccccc2C)n1 [CBK307449], Cc1nc2ccccc2c(O)c1CN1CCN(C)CC1 [CBK027922] is higher in viability at 28.5 h, 10 µM: 115% for the first, 119% for the second.

Going from Cn1nc(-c2ccc(S(=O)(=O)Nc3cccc(C(=O)O)c3)s2)cc1C(F)(F)F [CBK155080] to CCNC(=O)c1cnc(-c2cccc(C(F)(F)F)c2)c(-c2cccc(CO)c2)c1 [CBK037557], the viability at 28.5 h, 10 µM rises from 86.9% to 94.7%.

First: Nc1ncnc(NCCc2ccc(Cl)cc2)c1[N+](=O)[O-] [CBK267351]
Second: O=C(O)CCNc1ccc(Cl)cc1 [CBK057631]
The viability at 28.5 h, 10 µM of the first is higher: 88.3% for the first, 75.5% for the second.

Going from Cc1cc2cc(C(=O)NCC3CCCN(C(C)C)C3)ccc2o1 (stereo not drawn) [CBK282625] to CN(C)C(=O)CN1C(=O)[C@H]2CCCN2C(=O)c2ccccc21 [CBK282854], the viability at 28.5 h, 10 µM falls from 105% to 91.2%.

Compared with NS(=O)(=O)c1cc(C(=O)O)ccc1F [CBK113180], Cc1ccc(CN(c2ccc(C(=O)O)cc2)S(C)(=O)=O)cc1 [CBK287203] is higher in viability at 28.5 h, 10 µM: 81.1% for the first, 85% for the second.

First: COc1ccc(/N=C2\S[C@H]3[C@H]([C@@H](O)[C@H](O)C[C@@H]3C(N)=O)N2Cc2cccs2)cc1 [CBK288943]
Second: COc1ccc(NC(=O)CSc2nnc(C(O)c3ccccc3)n2C)cc1 (stereo not drawn) [CBK266053]
The viability at 28.5 h, 10 µM of the first is lower: 88.7% for the first, 110% for the second.

Compared with COc1ccc(Cl)cc1NC(=O)CN(c1cc(C(F)(F)F)ccc1Cl)S(C)(=O)=O [CBK264724], COc1ccc(Cl)cc1NC(=S)NCCn1cc(Cl)cn1 [CBK267063] is higher in viability at 28.5 h, 10 µM: 82.5% for the first, 89.8% for the second.

Compared with Nc1nc(SCCc2ccccc2)nc2sc3c(c12)CCCC3 [CBK263445], CCOC(=O)C1CCCN1Cc1ccccc1 (stereo not drawn) [CBK278278G] is higher in viability at 28.5 h, 10 µM: 94.9% for the first, 95% for the second.

Compared with COc1ccc(CCNc2nc3c(c(=O)n(C)c(=O)n3C)n2Cc2ccccc2Br)cc1OC [CBK267495], COc1ccccc1-c1ccc(NC(=O)CCn2cnc3ccccc3c2=O)cc1 [CBK285711] is lower in viability at 28.5 h, 10 µM: 96.7% for the first, 95.2% for the second.

First: COC(=O)[C@H]1CN(C(=O)c2cn(C)nc2C)C[C@@H]1c1ccc(F)cc1 [CBK283720]
Second: CC(C)(C)c1ccc(C(=O)N2CC(C(=O)O)C2)cc1 [CBK008670]
The viability at 28.5 h, 10 µM of the first is lower: 96.6% for the first, 101% for the second.

Compared with CCOC(=O)CN1CCC(Oc2cncc(OCCN3CCOCC3)n2)C1 (stereo not drawn) [CBK084491], CCOC(=O)CN1CCN(c2nccnc2OC2CCCCC2)CC1 [CBK082837T] is higher in viability at 28.5 h, 10 µM: 89.3% for the first, 102% for the second.

Going from CC(C)(C)NC(=O)NC1CCC2(CC1)CC(=O)c1ccccc1O2 (stereo not drawn) [CBK283390] to CC(C)(C)NC(=O)Cn1cncc1-c1[nH]c2ccccc2c1Cl [CBK281981], the viability at 28.5 h, 10 µM falls from 109% to 105%.

Compared with CC(=O)NCC1CCC2(CCN(c3nc(C)nc(C)c3C)CC2)O1 (stereo not drawn) [CBK307404], CCOC(=O)NC(=O)N1CCC(N2C(=O)OCC2(C)C)CC1 [CBK044179] is lower in viability at 28.5 h, 10 µM: 94.1% for the first, 90.5% for the second.

First: Cc1ccc(NC(=S)N2CCN(C/C=C/c3ccccc3)CC2)cc1 [CBK264574]
Second: CCOC(=O)CCCNC(=O)N1CCN(c2ccccc2OC)CC1 [CBK155618]
The viability at 28.5 h, 10 µM of the first is higher: 98.9% for the first, 95.9% for the second.

First: CCOC(=O)c1nc2c(n1C)[C@H]1[C@H](O)[C@H](O)C[C@H]1C1(CCC1)N2 [CBK303241]
Second: Cn1cc(-c2ccc(OCC3CCN(C(=O)OC(C)(C)C)CC3)cn2)cn1 [CBK173498]
The viability at 28.5 h, 10 µM of the first is higher: 107% for the first, 77.8% for the second.

Compared with Cn1cc(C2CCCN2C(=O)Cc2csc3ccccc23)cn1 (stereo not drawn) [CBK305066], O=C(c1cn2ccccc2n1)N1CCCN(Cc2cscn2)CC1 [CBK305352] is higher in viability at 28.5 h, 10 µM: 102% for the first, 104% for the second.

First: CCOc1ccccc1CN1CC2CCCN2C[C@@H]1C (stereo partly drawn) [CBK285435]
Second: CC(C)C(=O)N1CCC(n2nc(C3CC3)ccc2=O)CC1 [CBK282351]
The viability at 28.5 h, 10 µM of the first is lower: 94.7% for the first, 104% for the second.

Going from COc1ccc(Oc2cc(Cl)nc(N)n2)cc1 [CBK261771] to COc1ccc(Oc2nccc(-c3ccccc3)c2C#N)cc1 [CBK291158], the viability at 28.5 h, 10 µM falls from 101% to 98.7%.

First: O=C(O)c1cc(S(=O)(=O)N2CCCCC2)c(Cl)cc1N1CCCCC1 [CBK263408]
Second: O=C(O)CCC(=O)Nc1cc(C(F)(F)F)ccc1N1CCCC1 [CBK057434]
The viability at 28.5 h, 10 µM of the first is lower: 93.5% for the first, 94.2% for the second.

Compared with COc1ccc(O)c(CN(C)CCN(C)C)c1 [CBK261854], COC(C)CN(C)Cc1c(C)[nH]c2ccc(F)cc12 (stereo not drawn) [CBK282035] is lower in viability at 28.5 h, 10 µM: 89.4% for the first, 84.5% for the second.

Compared with CCOc1cc(C=O)ccc1OCc1c(C)no[n+]1[O-] [CBK263449], Cc1ccc2nc(CNC(=O)N(C)CCc3c(C)n[nH]c3C)cn2c1 [CBK306984] is lower in viability at 28.5 h, 10 µM: 92.1% for the first, 81.1% for the second.

Compared with O=C(Cc1ccc2c(c1)OCO2)Nc1nn(Cc2ccc(C(F)(F)F)cc2)c2ccccc12 [CBK048401], O=C(CN1C(=O)c2ccccc2C1=O)Nc1cccc2ncccc12 [CBK262761] is lower in viability at 28.5 h, 10 µM: 115% for the first, 84% for the second.

First: Cc1cc2c(SCc3cc(O)[nH]n3)ncnc2s1 [CBK269799]
Second: Cc1nnc(SCc2nnnn2-c2ccccc2)nc1O [CBK266302]
The viability at 28.5 h, 10 µM of the first is lower: 93.9% for the first, 101% for the second.

Going from COc1ccc2[nH]cc(C3CCN(C(=O)c4cc(C#N)c[nH]4)CC3)c2c1 [CBK305479] to Cc1ccc2[nH]c3c(c2c1)CCN(C=O)C31CCN(Cc2ccc(OC(F)F)cc2)CC1 [CBK040438], the viability at 28.5 h, 10 µM rises from 93.2% to 101%.

First: CCN(C(=O)Nc1cccnc1Oc1ccc(F)cc1)C1CCOCC1 [CBK306535]
Second: Cc1[nH]nc(-c2ccc(O)c(C)c2O)c1Oc1ccc(F)cc1 [CBK264478]
The viability at 28.5 h, 10 µM of the first is lower: 89.5% for the first, 124% for the second.

Going from COc1ccc(C(C)NC(=O)c2cn[nH]c2-c2ccc(Cl)cc2)cc1 (stereo not drawn) [CBK288065] to CC(=O)Nc1ccc(-c2nnc(SCc3c(Cl)cccc3[N+](=O)[O-])n2C)cc1 [CBK265823], the viability at 28.5 h, 10 µM falls from 102% to 89.1%.

Going from CC(C)[C@H](CO)Nc1nc(-c2ccccc2)cnc1N [CBK063933] to CC(C)CNc1nc(-c2ccc(F)cc2)cnc1N [CBK063815], the viability at 28.5 h, 10 µM falls from 107% to 105%.

First: CCCNc1nc(-c2ccc(SC)cc2)cn2ccnc12 [CBK066619]
Second: O=C1CCCN1CCCNc1nccnc1-c1ccncc1 [CBK036832]
The viability at 28.5 h, 10 µM of the first is lower: 95.5% for the first, 106% for the second.

Compared with O=C1CN(Cc2nc(-c3cccc(C(F)(F)F)c3)no2)CCN1 [CBK306038], CSCCCNC(=O)N1CCN(c2cc(C(F)(F)F)ccn2)CC1 [CBK156433] is lower in viability at 28.5 h, 10 µM: 92.9% for the first, 92.3% for the second.

First: Cc1ccc2oc(C(=O)Nc3ccc(-n4cnnn4)cc3)c(C)c2c1 [CBK287804]
Second: O=C(O)c1cccc(N2C(=O)c3cccc4c(C(=O)c5ccccc5)ccc(c34)C2=O)c1 [CBK299809]
The viability at 28.5 h, 10 µM of the first is higher: 88.1% for the first, 74.2% for the second.

First: C=CCn1c(-c2sc(NC(=O)c3[nH]c4c(c3C)C(=O)CC(C)(C)C4)nc2C)n[nH]c1=S [CBK297757]
Second: CCCc1nnc(C(=O)NC(=O)NCCCN(C)C)s1 [CBK018853]
The viability at 28.5 h, 10 µM of the first is higher: 91% for the first, 84.3% for the second.

First: Cc1cc(NC(=O)N2CCN(c3ncccc3C#N)CC2)no1 [CBK305901]
Second: Cc1cccnc1NC(=S)NCc1ccco1 [CBK268907]
The viability at 28.5 h, 10 µM of the first is lower: 80.5% for the first, 103% for the second.

First: COC(=O)c1c(NC(=S)Nc2cnccn2)sc2c1CCC2 [CBK266935]
Second: O=C(NC(c1ccccc1)c1cccnc1)C1CCN(C(=O)NCCc2cccs2)CC1 (stereo not drawn) [CBK060313]
The viability at 28.5 h, 10 µM of the first is higher: 90.3% for the first, 78.3% for the second.

For Cn1ccnc1CN1C(=O)CO[C@H]2CN(Cc3ccc4c(c3)OCO4)C[C@H]21 [CBK289665], the viability at 28.5 h, 10 µM was 90%.

Same assay, conditions: human, hela cells, % viability, bulk resorufin, single well

CSc1cc(C)c2c(c1)COC1(CCN(C(=O)COCC(=O)O)CC1)O2 [CBK060839] gave a viability at 28.5 h, 10 µM of 94.1%.
